From patent US12421253B2 (Mirati Therapeutics, Inc., priority 2020, dated 2025)

Experiments:
[1] = target: T1, KRas^G12D (Homo sapiens, UniProt P01116, G12D); assay: KRas binding assay (TR-FRET displacement of Cy5 labelled tracer)
T1 construct: […]; biotin (biotinylated); purchased Accelegan Inc
Description: (§3) The ability of a compound to bind to KRas was measured using a TR-FRET displacement assay. […] After a 60-minute incubation at room temperature, the reaction was measured using a BMG LABTECH CLARIO star Plus via TR-FRET. […] The POC values were fit to a 4-parameter IC50 equation and the IC50 value reported.

[2] = target: T2, KRas^G12R (Homo sapiens, UniProt P01116, G12R); assay: as above
T2 construct: […]; biotin (biotinylated); purchased Accelegan Inc
Description: as §3

[3] = system: NCI-H727 (G12V) cells, phospho-ERK; assay: Inhibition of KRas-mediated phosphorylation of ERK (phospho-ERK/GAPDH antibody detection, LI-COR); format: cell-based; details: Homo sapiens, 3 hours
Summary of the method: (§1)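 Cells seeded 20,000/well, attached 12-14 h, then compound (0.5% DMSO) for 3 h. Formaldehyde-fixed, methanol-permeabilized cells stained for phospho-ERK (Thr202/Tyr204) and GAPDH; infrared imaging. Ratio expressed as % of DMSO control; IC50 from 4-parameter fit.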

[4] = system: NCI-H460 (Q61H) cells, phospho-ERK; assay: as above; format: cell-based; details: Homo sapiens, 3 hours
Summary of the method: as §1

[5] = system: AsPC-1 (G12D) cells, phospho-ERK; assay: as above; format: cell-based; details: Homo sapiens, ASPC1, 3 hours
Summary of the method: as §1

[6] = target: T3, KRas^G12V (Homo sapiens, UniProt P01116, G12V); assay: KRas binding assay (TR-FRET displacement of Cy5 labelled tracer)
T3 construct: […]; biotin (biotinylated); purchased Accelegan Inc
Description: as §3

[7] = system: ASPC1 cells, pERK; assay: Inhibition of KRas phosphorylation of ERK (Cisbio HTRF Advanced pERK assay); format: cell-based; details: Homo sapiens, ASPC1, 3 h, AsPC-1 cells, read-out: Inhibition (HTRF IC50 nM) of KRas-mediated Phosphorylation of ERK, AsPC-1
Summary of the method: (§2)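 Homogeneous time-resolved fluorescence quantified phospho-ERK in lysates of cells exposed 3 h to compound (10 uM top, 3-fold serial, 0.8% DMSO).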

[8] = system: H358 cells, pERK; assay: as above; format: cell-based; details: Homo sapiens, NCI-H358, 3 hrs, read-out: Inhibition (HTRF IC50 nM) of KRas-mediated Phosphorylation of ERK, H358
Summary of the method: as §2

[9] = system: H727 cells, pERK; assay: as above; format: cell-based; details: Homo sapiens, NCI-H727, 3 h, read-out: Inhibition (HTRF IC50 nM) of KRas-mediated Phosphorylation of ERK, H727
Summary of the method: as §2

[10] = system: MKN1 cells, pERK; assay: as above; format: cell-based; details: Homo sapiens, MKN-1, 3 h, read-out: Inhibition (HTRF IC50 nM) of KRas-mediated Phosphorylation of ERK, MKN1
Summary of the method: as §2

[11] = system: PSN1 cells, pERK; assay: as above; format: cell-based; details: Homo sapiens, PSN1, 3 h, read-out: Inhibition (HTRF IC50 nM) of KRas-mediated Phosphorylation of ERK, PSN1
Summary of the method: as §2

[12] = system: H460 cells, pERK; assay: as above; format: cell-based; details: Homo sapiens, NCI-H460, 3 hrs, read-out: Inhibition (HTRF IC50 nM) of KRas-mediated Phosphorylation of ERK, H460
Summary of the method: as §2

[13] = system: HCT116 cells, pERK; assay: as above; format: cell-based; details: Homo sapiens, HCT-116, 3 hrs, read-out: Inhibition (HTRF IC50 nM) of KRas-mediated Phosphorylation of ERK, HCT116
Summary of the method: as §2

[14] = system: A549 cells, pERK; assay: as above; format: cell-based; details: Homo sapiens, 3 hrs, read-out: Inhibition (HTRF IC50 nM) of KRas-mediated Phosphorylation of ERK, A549
Summary of the method: as §2

T2 sequence (P01116 1-169 isoform P01116-2 G12R): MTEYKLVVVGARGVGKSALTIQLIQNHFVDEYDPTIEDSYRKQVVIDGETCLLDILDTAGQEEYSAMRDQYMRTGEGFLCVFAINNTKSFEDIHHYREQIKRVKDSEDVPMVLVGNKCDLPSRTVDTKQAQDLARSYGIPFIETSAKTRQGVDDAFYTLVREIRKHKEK
T3 sequence (P01116 1-169 isoform P01116-2 G12V): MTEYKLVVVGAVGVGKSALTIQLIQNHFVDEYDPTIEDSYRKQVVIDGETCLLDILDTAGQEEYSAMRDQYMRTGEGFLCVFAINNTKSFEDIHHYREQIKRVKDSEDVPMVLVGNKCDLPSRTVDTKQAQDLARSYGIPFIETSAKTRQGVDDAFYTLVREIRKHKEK
T1 sequence (P01116 1-169 isoform P01116-2 G12D): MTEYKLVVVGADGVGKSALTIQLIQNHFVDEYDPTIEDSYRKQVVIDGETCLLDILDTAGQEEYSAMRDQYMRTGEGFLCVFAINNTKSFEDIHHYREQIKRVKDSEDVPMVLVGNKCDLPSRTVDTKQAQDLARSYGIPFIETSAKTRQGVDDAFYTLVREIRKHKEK

| Structure (SMILES) | IC50 [1] | IC50 [2] | IC50 [3] | IC50 [4] | IC50 [5] | IC50 [6] | IC50 [7] | IC50 [8] | IC50 [9] | IC50 [10] | IC50 [11] | IC50 [12] | IC50 [13] | IC50 [14] |
| --- | --- | --- | --- | --- | --- | --- | --- | --- | --- | --- | --- | --- | --- | --- |
| CCc1c(F)ccc2cc(O)cc(N3CCc4c(nc(OC[C@@]56CCCN5C[C@H](F)C6)nc4N4CCCC(O)CC4)C3)c12 (stereo partly drawn) [Example 30, 1-(7-(8-ethyl-7-fluoro-3-hydroxynaphthalen-1-yl)-2-(((2R,7aS)-2-fluorohexahydro-1H-pyrrolizin-7a-yl)methoxy)-5,6,7,8-tetrahydropyrido[3,4-d]pyrimidin-4-yl)azepan-4-ol] | ≤ 2 nM | ≤ 2 nM | 399 nM | 309 nM | 447 nM | ≤ 2 nM | 86 nM | 83 nM | 227 nM | 16 nM | 3510 nM | 203 nM | 480 nM | – |
| CCc1c(F)ccc2cc(O)cc(N3CCc4c(nc(OC[C@@]56CCCN5C[C@H](F)C6)nc4N4CCCc5nn(C(=O)N(C)C)cc5C4)C3)c12 [Example 194, 5-(7-(8-ethyl-7-fluoro-3-hydroxynaphthalen-1-yl)-2-(((2R,7aS)-2-fluorohexahydro-1H-pyrrolizin-7a-yl)methoxy)-5,6,7,8-tetrahydropyrido[3,4-d]pyrimidin-4-yl)-N,N-dimethyl-5,6,7,8-tetrahydropyrazolo[4,3-c]azepine-2(4H)-carboxamide] | ≤ 2 nM | ≤ 2 nM | – | – | – | ≤ 2 nM | 71 nM | 63 nM | 115 nM | 100 nM | ≥ 10000 nM | 426 nM | – | – |
| CCc1c(F)ccc2cc(O)cc(N3CCc4c(nc(OC[C@@]56CCCN5C[C@H](F)C6)nc4N4CCCn5nc(C(=O)N(C)C)c(C)c5C4)C3)c12 [Example 189, 5-(7-(8-ethyl-7-fluoro-3-hydroxynaphthalen-1-yl)-2-(((2R,7aS)-2-fluorotetrahydro-1H-pyrrolizin-7a(5H)-yl)methoxy)-5,6,7,8-tetrahydropyrido[3,4-d]pyrimidin-4-yl)-N,N,3-trimethyl-5,6,7,8-tetrahydro-4H-pyrazolo[1,5-a][1,4]diazepine-2-carboxamide] | ≤ 2 nM | ≤ 2 nM | – | – | – | 52 nM | 2 nM | 1 nM | 3 nM | 4 nM | 2680 nM | 39 nM | – | – |
| O=S1(=O)NCC2(CCCN(c3nc(OC[C@@]45CCCN4C[C@H](F)C5)nc4c3CCN(c3cc(O)cc5ccc(F)c(Br)c35)C4)C2)N1 (stereo partly drawn) [Example 225, 7-(7-(8-bromo-7-fluoro-3-hydroxynaphthalen-1-yl)-2-(((2R,7aS)-2-fluorohexahydro-1H-pyrrolizin-7a-yl)methoxy)-5,6,7,8-tetrahydropyrido[3,4-d]pyrimidin-4-yl)-2-thia-1,3,7-triazaspiro[4.5]decane 2,2-dioxide] | ≤ 2 nM | ≤ 2 nM | – | – | – | ≤ 2 nM | 23 nM | 9 nM | 82 nM | 3 nM | 328 nM | 56 nM | 158 nM | – |
| CCc1c(F)ccc2cc(O)cc(N3CCc4c(nc(OC[C@@]56CCCN5C[C@H](F)C6)nc4N4CCCn5nc(C(=O)N(C)C)cc5C4)C3)c12 [Example 66, 5-(7-(8-ethyl-7-fluoro-3-hydroxynaphthalen-1-yl)-2-(((2R,7aS)-2-fluorohexahydro-1H-pyrrolizin-7a-yl)methoxy)-5,6,7,8-tetrahydropyrido[3,4-d]pyrimidin-4-yl)-N,N-dimethyl-5,6,7,8-tetrahydro-4H-pyrazolo[1,5-a][1,4]diazepine-2-carboxamide] | ≤ 2 nM | ≤ 2 nM | – | – | – | ≤ 2 nM | 1 nM | 2 nM | 5 nM | 1 nM | – | 36 nM | 62 nM | 5 nM |
| CCc1c(F)ccc2cc(O)cc(N3CCc4c(nc(OC[C@@]56CCCN5C[C@H](F)C6)nc4N4CCCn5nc(C(=O)N6CCOCC6)cc5C4)C3)c12 [Example 193, (5-(7-(8-ethyl-7-fluoro-3-hydroxynaphthalen-1-yl)-2-(((2R,7aS)-2-fluorohexahydro-1H-pyrrolizin-7a-yl)methoxy)-5,6,7,8-tetrahydropyrido[3,4-d]pyrimidin-4-yl)-5,6,7,8-tetrahydro-4H-pyrazolo[1,5-a][1,4]diazepin-2-yl)(morpholino)methanone] | ≤ 2 nM | ≤ 2 nM | – | – | – | ≤ 2 nM | 3 nM | 2 nM | 5 nM | 4 nM | 2100 nM | 38 nM | 74 nM | – |
| CCc1c(F)ccc2cc(O)cc(N3CCc4c(nc(OC[C@@]56CCCN5C[C@H](F)C6)nc4N4CCCn5nc(C(=O)N6CCCC6)cc5C4)C3)c12 [Example 191, (5-(7-(8-ethyl-7-fluoro-3-hydroxynaphthalen-1-yl)-2-(((2R,7aS)-2-fluorotetrahydro-1H-pyrrolizin-7a(5H)-yl)methoxy)-5,6,7,8-tetrahydropyrido[3,4-d]pyrimidin-4-yl)-5,6,7,8-tetrahydro-4H-pyrazolo[1,5-a][1,4]diazepin-2-yl)(pyrrolidin-1-yl)methanone] | ≤ 2 nM | ≤ 2 nM | – | – | – | 52 nM | 3 nM | 3 nM | 3 nM | 10 nM | 2960 nM | 33 nM | – | – |
| O=C1NC(=O)C2CN(c3nc(OC[C@@]45CCCN4C[C@H](F)C5)nc4c3CCN(c3cc(O)cc5ccc(F)c(Br)c35)C4)CC12 (stereo partly drawn) [Example 226, 5-(7-(8-bromo-7-fluoro-3-hydroxynaphthalen-1-yl)-2-(((2R,7aS)-2-fluorohexahydro-1H-pyrrolizin-7a-yl)methoxy)-5,6,7,8-tetrahydropyrido[3,4-d]pyrimidin-4-yl)tetrahydropyrrolo[3,4-c]pyrrole-1,3(2H,3aH)-dione] | ≤ 2 nM | ≤ 2 nM | – | – | – | ≤ 2 nM | 45 nM | 22 nM | 43 nM | 7 nM | 2790 nM | 169 nM | – | – |
| CCc1c(F)ccc2cc(O)cc(N3CCc4c(nc(OC[C@@]56CCCN5C[C@H](F)C6)nc4N4CCCn5nc(C(=O)NC(C)C)cc5C4)C3)c12 [Example 188, 5-(7-(8-ethyl-7-fluoro-3-hydroxynaphthalen-1-yl)-2-(((2R,7aS)-2-fluorotetrahydro-1H-pyrrolizin-7a(5H)-yl)methoxy)-5,6,7,8-tetrahydropyrido[3,4-d]pyrimidin-4-yl)-N-isopropyl-5,6,7,8-tetrahydro-4H-pyrazolo[1,5-a][1,4]diazepine-2-carboxamide] | ≤ 2 nM | ≤ 2 nM | – | – | – | ≤ 2 nM | 2 nM | 3 nM | 4 nM | 7 nM | 2880 nM | 49 nM | – | – |
| CCc1c(F)ccc2cc(O)cc(N3CCc4c(nc(OC[C@@]56CCCN5C[C@H](F)C6)nc4N4CCCn5nc(C(=O)N(C)C)c(F)c5C4)C3)c12 [Example 190, 5-(7-(8-ethyl-7-fluoro-3-hydroxynaphthalen-1-yl)-2-(((2R,7aS)-2-fluorotetrahydro-1H-pyrrolizin-7a(5H)-yl)methoxy)-5,6,7,8-tetrahydropyrido[3,4-d]pyrimidin-4-yl)-3-fluoro-N,N-dimethyl-5,6,7,8-tetrahydro-4H-pyrazolo[1,5-a][1,4]diazepine-2-carboxamide] | ≤ 2 nM | ≤ 2 nM | – | – | – | ≤ 2 nM | 2 nM | 3 nM | 6 nM | 6 nM | 5450 nM | 49 nM | – | – |
